“And” between values parts separate entries of the source, which are not always exact repeats. Equal values may be shown once. Read-outs that look alike come from different tables or passages of the source.
What was measured:
Clostridium perfringens = assay: microbe, parasite or virus in culture; assay type: cell-based
cherry valley ducks = assay: Feeding trial (ducks); assay type: in vivo; settings: 20 ppm in basal diet, 30 days; for Average feed conversion efficiency: control 2.16; for Average weight gain: control 55.8
Source text: 800 1-day-old cherry valley ducks were divided into 8 groups, 100 ducks in each group. […] The compounds of IST_007 series can substantially enhance the productivity of the ducks, concluded from the results.

[1] = tested on: yellow feather broilers (female); assay: Feeding trial (broilers); assay type: in vivo; settings: 20 ppm in feed, 30 days; for Feed conversion efficiency: controls 2.15, 2.11, hydrochloride; for Average daily weight gain: controls 23.7, hydrochloride; for Average weight gain: controls 713, 712, hydrochloride; for Consumption: group of 50, controls 76.6, 75.2, hydrochloride
Source text: 400 1-day-aged, healthy, fast-grown yellow feather broilers (female) in the same growing state and similar in weight were randomly divided into eight groups according to table 5, 50 broilers in each group. Broilers in each group were fed with different dosage of the IST_007 series compounds.

[2] = tested on: Duroc-YorkShire-Landrace crossbred lean pigs; assay: Feeding trial (pigs); settings: 25 mg/kg mixed with feed, 14 days; for Average daily weight gain: controls 0.44, 0.43, hydrochloride; for Feed conversion efficiency: controls 2.13, 2.11, hydrochloride; for Average weight gain: controls 6.2, 6.1, hydrochloride; for Consumption: group of 15, controls 198.3, 192.9, hydrochloride
[3] = read-out: Minimum inhibitory concentration (MIC), strain CP-JM-1208-H, in vitro
[4] = read-out: Minimum inhibitory concentration (MIC), strain CP-JM-1210-B, in vitro
[5] = read-out: Minimum inhibitory concentration (MIC), strain CP-JM-1210-E, in vitro
[6] = read-out: Minimum inhibitory concentration (MIC), strain RA-FS-1308-1, in vitro
[7] = read-out: Minimum inhibitory concentration (MIC), strain RA-GD-1211-D, in vitro
[8] = read-out: Minimum inhibitory concentration (MIC), strain RA-HN-1211-C, in vitro

Row | SMILES | MIC (Clostridium perfringens; [3]) | MIC (Clostridium perfringens; [4]) | MIC (Clostridium perfringens; [5]) | Survival rate (%) (cherry valley ducks) | Average feed conversion efficiency (cherry valley ducks) | Average weight gain (cherry valley ducks) | Survival rate (%) [1] | Feed conversion efficiency [1] | Average daily weight gain [1] | Average weight gain [1] | Consumption [1] | MIC (Riemerella anatipestifer; [6]) | MIC (Riemerella anatipestifer; [7]) | MIC (Riemerella anatipestifer; [8]) | Average daily weight gain [2] | Feed conversion efficiency [2] | Average weight gain [2] | Consumption [2] | MIC (Riemerella anatipestifer; read-out: Minimum inhibitory concentration (MIC))
1 | COc1ccc(/C=N/NC(=N)N/N=C/c2ccc(OC)cc2)cc1.Cl [IST_007_001, 1,3-bis[(4-methoxybenzylidene)amino]guanidine hydrochloride] | 12.5 µg/mL | 1.56 µg/mL | 50 µg/mL | 100% | 2.01 | 62.1 | 100% | 1.88 and 1.91 | 25.5 g and 25.8 g | 764 g and 775 g | 71.7 kg and 73.8 kg | 6.25 µg/mL | 3.13 µg/mL | 3.13 µg/mL | – | – | – | – | –
2 | CCOc1ccc(C=NNC(=N)NN=Cc2ccc(OCC)cc2)cc1.Cl [IST_007_002, 1,3-bis[(4-ethoxybenzylidene)amino]guanidine hydrochloride] | > 100 µg/mL | 0.2 µg/mL | > 100 µg/mL | – | – | – | – | – | – | – | – | > 100 µg/mL | > 100 µg/mL | > 100 µg/mL | – | – | – | – | –
3 | CC(C)Oc1ccc(C=NNC(=N)NN=Cc2ccc(OC(C)C)cc2)cc1.Cl [IST_007_003, 1,3-bis[(4-isopropoxybenzylidene)amino]guanidine hydrochloride] | 12.5 µg/mL | 3.13 µg/mL | 12.5 µg/mL | 100% | 2.03 | 63.6 | 100% | 1.86 and 1.82 | 26.3 g and 26.5 g | 791 g and 795 g | 73.7 kg and 72.3 kg | 1.56 µg/mL | 1.56 µg/mL | 1.56 µg/mL | 0.56 kg/day and 0.58 kg/day | 1.84 and 1.65 | 7.8 kg and 8.2 kg | 215.3 kg and 203.4 kg | –
4 | CCCCOc1ccc(C=NNC(=N)NN=Cc2ccc(OCCCC)cc2)cc1.Cl [IST_007_005, 1,3-bis[(4-butoxybenzylidene)amino]guanidine hydrochloride] | 12.5 µg/mL | 0.78 µg/mL | 25 µg/mL | 100% | 2.07 | 62.4 | 100% | 1.86 and 1.84 | 26.5 g and 26.2 g | 796 g and 787 g | 74.1 kg and 72.5 kg | 1.56 µg/mL | 1.56 µg/mL | 1.56 µg/mL | – | – | – | – | –
5 | CCCCCOc1ccc(C=NNC(=N)NN=Cc2ccc(OCCCCC)cc2)cc1.Cl [IST_007_019, 1,3-bis[(4-pentoxybenzylidene)amino]guanidine hydrochloride] | > 200 µg/mL | > 200 µg/mL | > 200 µg/mL | – | – | – | – | – | – | – | – | > 200 µg/mL | 0.39 µg/mL | > 200 µg/mL | – | – | – | – | –
6 | CCCCCCCCOc1ccc(C=NNC(=N)NN=Cc2ccc(OCCCCCCCC)cc2)cc1.Cl [IST_007_020, 1,3-bis[(4-octoxybenzylidene)amino]guanidine hydrochloride] | > 200 µg/mL | > 200 µg/mL | > 200 µg/mL | – | – | – | – | – | – | – | – | > 200 µg/mL | > 200 µg/mL | > 200 µg/mL | – | – | – | – | –
7 | CCC(C)Oc1ccc(C=NNC(=N)NN=Cc2ccc(OC(C)CC)cc2)cc1.Cl (centres unmarked) [IST_007_022, 1,3-bis[(4-sec-butoxybenzylidene)amino]guanidine hydrochloride] | 12.5 µg/mL | 12.5 µg/mL | 12.5 µg/mL | 100% | 2.08 | 61.3 | – | – | – | – | – | 1.56 µg/mL | 0.2 µg/mL | 1.56 µg/mL | – | – | – | – | –
8 | CCC(CC)Oc1ccc(C=NNC(=N)NN=Cc2ccc(OC(CC)CC)cc2)cc1.Cl [IST_007_023, 1,3-bis[[4-(3-pentoxy)benzylidene]amino]guanidine hydrochloride] | 12.5 µg/mL | 12.5 µg/mL | 12.5 µg/mL | 100% | 2.05 | 62.4 | – | – | – | – | – | 1.56 µg/mL | 0.78 µg/mL | 1.56 µg/mL | – | – | – | – | –
9 | Cl.N=C(NN=Cc1ccc(OC2CCCC2)cc1)NN=Cc1ccc(OC2CCCC2)cc1 [IST_007_024, 1,3-bis[(4-cyclopentoxybenzylidene)amino]guanidine hydrochloride] | 1.56 µg/mL | 1.56 µg/mL | 3.13 µg/mL | 100% | 2.09 | 63.1 | – | – | – | – | – | 0.39 µg/mL | 0.78 µg/mL | 0.39 µg/mL | – | – | – | – | –
10 | Cl.N=C(NN=Cc1ccc(OCc2ccccc2)cc1)NN=Cc1ccc(OCc2ccccc2)cc1 [IST_007_025, 1,3-bis[(4-benzyloxybenzylidene)amino]guanidine hydrochloride] | > 200 µg/mL | 100 µg/mL | > 200 µg/mL | – | – | – | – | – | – | – | – | > 200 µg/mL | 0.39 µg/mL | > 200 µg/mL | – | – | – | – | –
11 | CCCOc1ccc(C=NNC(=N)NN=Cc2ccc(OCCC)cc2)cc1.Cl [IST_007_028, 1,3-bis[(4-propoxybenzylidene)amino]guanidine hydrochloride] | 1.56 µg/mL | 1.56 µg/mL | 1.56 µg/mL | 100% | 2.04 | 61.6 | – | – | – | – | – | – | 0.39 µg/mL | 0.39 µg/mL | 0.55 kg/day and 0.52 kg/day | 1.75 and 1.85 | 7.7 kg and 7.3 kg | 201.3 kg and 202.5 kg | 1.56 µg/mL
